{
  "source": "patent US20210193322A1",
  "about": "“NETWORK METHODS FOR NEURODEGENERATIVE DISEASES” (Genting TauRx Diagnostic Centre SDN BHD, priority 2018, published 2021)",
  "key": {"[1]": {"tested_on": "AD diagnosed patients", "assay": "Structural correlation network analysis (MRI cortical thickness and surface area correlation matrices, node degree) in AD patients", "format": "in vivo, human"}, "[2]": {"tested_on": "bvFTD", "settings": "cited from earlier work"}},
  "data": [
    {"molecule": "CN(C)c1ccc2c(c1)Sc1cc(N(C)C)ccc1N2", "note": "[LMTM, leuco-methylthioninium bis(hydromethanesulfonate)]", "values": [
      {"measurement": "number of inverse/compensatory non-homologous cortical thickness correlations compared with healthy elderly controls", "setting": "[1]; 54 AD patients with CDR 0.5 only, baseline and week 65, LMTM 8 mg/day monotherapy, vs 202 healthy elderly, FIGS. 27A-27D", "value": "equivalent to the normal elderly controls"},
      {"measurement": "number of inverse/compensatory non-homologous surface area correlations compared with healthy elderly controls", "setting": "[1]; 54 AD patients with CDR 0.5 only, baseline and week 65, LMTM 8 mg/day monotherapy, vs 202 healthy elderly, FIGS. 28A-28D", "value": "either equivalent to or lower than normal elderly controls"},
      {"measurement": "cortical thickness networks compared with healthy elderly controls", "setting": "[1]; 96 AD patients (CDR 0.5, 1 or 2), baseline and week 65, LMTM 8 mg/day monotherapy, vs 202 healthy elderly, FIGS. 25A-25D", "value": "brings the cortical thickness networks closer to normal"},
      {"measurement": "surface area networks compared with healthy elderly controls", "setting": "[1]; 96 AD patients (CDR 0.5, 1 or 2), baseline and week 65, LMTM 8 mg/day monotherapy, vs 202 healthy elderly, FIGS. 26A-26D", "value": "normalizes surface area networks"},
      {"measurement": "compensatory network correlations (especially non-homologous, positive and inverse correlations)", "setting": "[1]; summary statement", "value": "reduce compensatory network correlations"},
      {"measurement": "cortical thickness correlations, within-lobe (positive) and between-lobe compensatory (inverse)", "setting": "[1]; week 65 vs baseline, LMTM 8 mg/day monotherapy, 96 AD patients, FIGS. 21A-21B", "value": "major reduction in thickness correlations"},
      {"measurement": "surface area correlations, within-lobe (positive) and between-lobe compensatory (inverse)", "setting": "[1]; week 65 vs baseline, LMTM 8 mg/day monotherapy, 96 AD patients, FIGS. 23A-23B", "value": "significant reductions in surface area correlations"},
      {"measurement": "effect on cortical thickness structural correlation networks (correlation matrix)", "setting": "[1]; week 65 vs baseline, LMTM 8 mg/day with symptomatic AD treatments (ach1), 445 AD patients, FIGS. 19A-19B", "value": "minimal effect"},
      {"measurement": "effect on non-homologous inter-lobar node degree (cortical thickness and surface area, positive and inverse correlations)", "setting": "[1]; week 65 vs week 0, LMTM 8 mg/day as add-on, ach1 group, FIGS. 20A-20D", "value": "minimal overall effect"},
      {"measurement": "number of positive and inverse non-homologous cortical thickness correlations (inter-lobar node degree)", "setting": "[1]; week 65 vs week 0, LMTM 8 mg/day monotherapy, ach0 group, FIGS. 22A-22B", "value": "significant reduction"},
      {"measurement": "number of positive and inverse/compensatory surface area correlations (non-homologous inter-lobar node degree)", "setting": "[1]; week 65 vs week 0, LMTM 8 mg/day monotherapy, ach0 group, FIGS. 24A-24B", "value": "significant reduction"}
    ]},
    {"molecule": "CC12CC3CC(C)(C1)CC(N)(C3)C2", "note": "[memantine]", "values": [
      {"measurement": "treatment benefit in bvFTD", "setting": "[2]", "value": "no treatment benefit"}
    ]}
  ]
}
